Tested on: hyperkalemia in patients on hemodialysis
Assay: Phase 3b randomized, double-blind, placebo-controlled study to reduce incidence of pre-dialysis hyperkalemia with SZC
Parameters: species or system human
Settings: in vivo
Description: A Phase 3b, Multicenter, Prospective, Randomized, Double Blind, Placebocontrolled Study to Reduce Incidence of Pre-Dialysis Hyperkalemia with Sodium Zirconium Cyclosilicate (SZC) The study was carried out to evaluate the efficacy of Sodium Zirconium Cyclosilicate in the treatment of hyperkalemia in patients on hemodialysis. The study was designed to include approximately 180 patients with ESRD receiving maintenance hemodialysis treatments three times per week with an indication for treatment of hyperkalemia (FIG. 1). The study is a randomized, double-blind study with two treatment groups, SZC or placebo, and includes hemodialysis patients that have been on dialysis for a minimum of three months and receive treatment three times a week. Patients must have hemodialysis access consisting of an arteriovenous fistula, AV graft, or tunneled (permanent) catheter which is expected to remain in place for the entire duration of the study (FIG. 2).
The starting dose of SZC will be 5 g once daily on non-dialysis day and may be adjusted to a maximum of 15 g per non-dialysis day to maintain a pre-dialysis S-K between 4-5 mmol/L. SZC or placebo will be administered orally on non-dialysis days for a treatment period of eight weeks. Patients will be randomized (1:1) to double-blind treatment with either SZC or placebo, started at 5 g once daily on non-dialysis days, and titrated during a period of four weeks to achieve and maintain a pre-dialysis serum potassium between 4 and 5 mmol/L after the Long Inter-Dialytic Interval (LIDI). Maximum SZC dose is 15 g once daily on non-dialysis days. Treatment will be continued unchanged for an additional four week evaluation period to complete a total of 8 weeks. The primary benefit for patients randomized to SZC is expected to be the maintenance of normokalemia during the long interdialytic interval, potentially including the relief of associated signs and symptoms and an improved quality of life.
For inclusion in the study patients should fulfil the following criteria: 1. Provision of informed consent prior to any study specific procedures. 2. Female or male aged >18 years at screening Visit 1. For patients aged <20 years and enrolled in Japan, a written informed consent should be obtained from the patient and his or her legally acceptable representative. 3. Receiving hemodialysis (or hemodiafiltration) three times a week for treatment of endstage renal disease (ESRD) for at least three months before randomization. 4. […]
Patients should not enter the study if any of the following exclusion criteria are fulfilled: 1. […] Hemoglobin <9 g/dL on screening (as assessed on Visit 1). […]

Sodium Zirconium Cyclosilicate [SZC]
number of patients with adverse events: 40
number of patients with serious adverse event: 7
overall safety: no safety concerns
patients with pre-dialysis hypokalemia (serum K<3.5 mmol/L): five

— patent publication US20220218738A1, “POTASSIUM-BINDING AGENTS FOR USE IN HEMODIALYSIS PATIENTS” (AstraZeneca AB, priority 2019, published 2022)
